From US8124637B2, “Anthra [1, 2-d]imidazole-6,11-dione derivatives, preparation method and application thereof” (National Defense Medical Center, priority 2010, dated 2012)

Experiments:
[1] = target: T1, telomerase (total cell lysates of lung cancer cell line H1299) (Homo sapiens, UniProt O14746); assay: Telomere repeat amplification protocol (TRAP) assay; format: biochemical; conditions: preliminary screening at 10 μM, gel
T1 construct: As a source of telomerase, the total cell lysates derived from lung cancer cell line H1299 cells were used; endogenous in cells; host or cells: H1299 lung cancer cells (total cell lysate)
T1 sequence (O14746 whole entry): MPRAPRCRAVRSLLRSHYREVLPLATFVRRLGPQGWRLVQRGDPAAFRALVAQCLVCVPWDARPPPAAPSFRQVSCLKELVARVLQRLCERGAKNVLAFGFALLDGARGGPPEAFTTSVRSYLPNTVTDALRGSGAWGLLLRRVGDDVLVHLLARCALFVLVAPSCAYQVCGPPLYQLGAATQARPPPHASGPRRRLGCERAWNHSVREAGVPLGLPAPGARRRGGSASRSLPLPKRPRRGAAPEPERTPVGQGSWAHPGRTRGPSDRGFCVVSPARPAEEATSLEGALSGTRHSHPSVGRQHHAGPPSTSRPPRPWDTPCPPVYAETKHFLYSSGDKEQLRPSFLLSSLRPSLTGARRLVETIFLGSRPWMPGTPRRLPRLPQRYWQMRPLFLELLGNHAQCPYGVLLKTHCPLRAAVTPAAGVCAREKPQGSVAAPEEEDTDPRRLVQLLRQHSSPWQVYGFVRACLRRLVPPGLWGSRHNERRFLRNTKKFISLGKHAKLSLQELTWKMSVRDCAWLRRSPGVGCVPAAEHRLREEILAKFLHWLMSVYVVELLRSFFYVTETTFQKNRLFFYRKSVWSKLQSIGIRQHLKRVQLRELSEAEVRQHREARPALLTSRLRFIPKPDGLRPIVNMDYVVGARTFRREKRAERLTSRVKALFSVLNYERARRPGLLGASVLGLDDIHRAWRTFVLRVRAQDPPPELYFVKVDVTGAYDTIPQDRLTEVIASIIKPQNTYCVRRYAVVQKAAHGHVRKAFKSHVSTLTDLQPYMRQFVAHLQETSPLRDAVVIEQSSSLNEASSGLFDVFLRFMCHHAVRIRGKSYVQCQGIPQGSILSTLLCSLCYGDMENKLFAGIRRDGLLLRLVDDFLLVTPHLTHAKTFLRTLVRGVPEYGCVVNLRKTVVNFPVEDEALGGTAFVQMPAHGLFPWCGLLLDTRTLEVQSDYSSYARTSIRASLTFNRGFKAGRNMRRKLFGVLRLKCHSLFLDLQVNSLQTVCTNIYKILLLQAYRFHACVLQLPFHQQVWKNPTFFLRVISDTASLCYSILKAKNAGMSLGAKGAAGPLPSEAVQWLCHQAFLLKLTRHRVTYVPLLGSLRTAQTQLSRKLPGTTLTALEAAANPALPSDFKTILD
T1 sequence (O60832 whole entry partner): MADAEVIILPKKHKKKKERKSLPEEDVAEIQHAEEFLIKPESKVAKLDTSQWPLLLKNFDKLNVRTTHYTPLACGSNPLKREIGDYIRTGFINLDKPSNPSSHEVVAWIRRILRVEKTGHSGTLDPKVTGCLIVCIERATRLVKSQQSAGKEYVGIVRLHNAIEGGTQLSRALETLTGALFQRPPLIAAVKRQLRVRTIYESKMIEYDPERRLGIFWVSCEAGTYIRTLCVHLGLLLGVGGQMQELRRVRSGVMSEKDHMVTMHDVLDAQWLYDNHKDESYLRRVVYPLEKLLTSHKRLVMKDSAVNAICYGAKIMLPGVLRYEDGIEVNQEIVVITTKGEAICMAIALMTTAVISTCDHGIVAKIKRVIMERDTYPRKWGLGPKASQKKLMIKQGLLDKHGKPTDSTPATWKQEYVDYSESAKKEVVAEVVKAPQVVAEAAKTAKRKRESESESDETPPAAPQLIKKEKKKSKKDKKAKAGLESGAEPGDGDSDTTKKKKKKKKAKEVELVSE
T1 sequence (Q9NX24 whole entry partner): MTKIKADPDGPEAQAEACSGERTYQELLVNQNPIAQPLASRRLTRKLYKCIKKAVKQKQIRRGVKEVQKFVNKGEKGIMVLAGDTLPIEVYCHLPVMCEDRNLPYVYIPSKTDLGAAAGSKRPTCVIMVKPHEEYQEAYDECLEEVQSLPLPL
T1 sequence (Q9NPE3 whole entry partner): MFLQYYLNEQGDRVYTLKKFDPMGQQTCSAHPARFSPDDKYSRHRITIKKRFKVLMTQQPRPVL
T1 sequence (Q9NY12 whole entry partner): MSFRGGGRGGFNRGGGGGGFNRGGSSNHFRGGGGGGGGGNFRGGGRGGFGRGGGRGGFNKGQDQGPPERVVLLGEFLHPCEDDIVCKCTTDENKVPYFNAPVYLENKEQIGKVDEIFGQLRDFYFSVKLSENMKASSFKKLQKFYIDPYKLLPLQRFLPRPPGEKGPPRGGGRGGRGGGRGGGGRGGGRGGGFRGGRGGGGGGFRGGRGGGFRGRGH
Method: Telomerase activity was detected by a modified version of the general TRAP protocol. Telomerase products were resolved by 10% polyacrylamide gel electrophoresis and visualized by staining with SYBER Green. As a source of telomerase, the total cell lysates derived from lung cancer cell line H1299 cells were used. Protein concentration of the lysates was assayed using Bio-Rad protein assay kit using BSA standards.
In the FIGS. 3A, 3B and FIG. 4, a positive control group (P) used water that had been sterilized three times in the assay; while a negative control group (N) used RNase A (CLONTECH) (5 μL, 0.1 mg/mL) in the assay.
In the positive control group (P), due to the absence of inhibitor, the telomerase could extend the telomere, such that some longer telomere fragments could be observed; while there was not observed in the negative control group (N). In the result of TRAP assay (FIG. 3A to 3B), compounds with a concentration of 10 μM was used as the preliminary screening. In the gel, standard compound A was 1,2-diaminoanthraquinone, D was doxorubicin, and M was mitoxantrone.

in vitro = conditions: human, Relative MTT viability (%)
K562 = assay: NCI 60-cell drug screen, one dose; format: cell-based, human; conditions: Leukemia K562, 1.00E−5 Molar
UACC-257 = assay: NCI 60-cell drug screen, one dose; format: cell-based, human; conditions: Melanoma UACC-257, 1.00E−5 Molar
CAKI-1 = assay: NCI 60-cell drug screen, one dose; format: cell-based, human; conditions: Renal Cancer CAKI-1, 1.00E−5 Molar
RXF 393 = assay: NCI 60-cell drug screen, one dose; format: cell-based, human; conditions: Renal Cancer RXF 393, 1.00E−5 Molar

CN1CCN(Cc2nc3ccc4c(c3[nH]2)C(=O)c2ccccc2C4=O)CC1 [CL24, 2-((4-methylpiperazin-1-yl)methyl)-1H-anthra[1,2-d]imidazole-6,11-dione]
inhibition effect/activity of telomerase (TRAP) [1]: more significant inhibition effect/activity of telomerase

O=C1c2ccccc2C(=O)c2c1ccc1nc(CN3CCN(c4ccccc4)CC3)[nH]c21 [CL27, 2-((4-phenylpiperazin-1-yl)methyl)-1H-anthra[1,2-d]imidazole-6,11-dione]
viability at 72 h, 1 µM (in vitro): 90.2 ± 3.86%
viability at 72 h, 10 µM (in vitro): 54.4%
viability at 72 h, 100 µM (in vitro): 18.1%

O=C1c2ccccc2C(=O)c2c1ccc1nc(CN3CCN(c4ccccn4)CC3)[nH]c21 [CL28, 2-((4-(pyridin-2-yl)piperazin-1-yl)methyl)-1H-anthra[1,2-d]imidazole-6,11-dione]
Growth Percent (K562): 83.48%
Growth Percent (UACC-257): 88.91%
Growth Percent (CAKI-1): 68.83%
Growth Percent (RXF 393): 89.67%
